Measured values taken from PubChem BioAssay AID276 (DTP/NCI, 2004).
Several values for one entry are separate records, joined by “and”; a condition that tells them apart may be missing. Equal entries are not always repeated. Inconclusive results and toxic doses are left out.

Tested on: B6C3F1 mice, Lewis lung carcinoma iv, survival T/C
Assay: NCI In Vivo Anticancer Drug Screen. Data for tumor model Lewis Lung Carcinoma (intravenous) in B6C3F1 mice
Conditions: endpoint: median survival time, higher = longer survival
Summary of the method: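 Tumors were transplanted into mice, which were then dosed with compound or vehicle. Survival was recorded in each group, and the treated figure was divided by the control figure.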

[1] = dose: 25.0 mg/kg/injection, schedule: Q01DX009 (ip), vehicle: saline
[2] = dose: 50.0 mg/kg/injection, schedule: Q01DX009 (ip), vehicle: saline
[3] = dose: 6.25 mg/kg/injection, schedule: Q01DX009 (ip), vehicle: water
[4] = dose: 12.5 mg/kg/injection, schedule: Q01DX009 (ip), vehicle: saline with Tween-80
[5] = dose: 25.0 mg/kg/injection, schedule: Q01DX009 (ip), vehicle: saline with Tween-80
[6] = dose: 50.0 mg/kg/injection, schedule: Q01DX009 (ip), vehicle: saline with Tween-80
[7] = dose: 100.0 mg/kg/injection, schedule: Q01DX009 (ip), vehicle: saline with Tween-80
[8] = dose: 25.0 mg/kg/injection, schedule: Q01DX009 (ip), vehicle: Klucel (hydroxypropylcellulose) (HPC)
[9] = dose: 50.0 mg/kg/injection, schedule: Q01DX009 (ip), vehicle: Klucel (hydroxypropylcellulose) (HPC)
[10] = dose: 100.0 mg/kg/injection, schedule: Q01DX009 (ip), vehicle: Klucel (hydroxypropylcellulose) (HPC)
[11] = dose: 6.25 mg/kg/injection, schedule: Q01DX009 (ip), vehicle: Klucel (hydroxypropylcellulose) (HPC)
[12] = dose: 12.5 mg/kg/injection, schedule: Q01DX009 (ip), vehicle: Klucel (hydroxypropylcellulose) (HPC)
[13] = dose: 200.0 mg/kg/injection, schedule: Q01DX009 (ip), vehicle: saline with Tween-80
[14] = dose: 400.0 mg/kg/injection, schedule: Q01DX009 (ip), vehicle: saline with Tween-80

## O=P1(N(CCCl)CCCl)NCCCO1 (stereo not given)
dose: 6.0 mg/kg/injection, schedule: Q01DX009 (ip), vehicle: saline
  T/C: 105 % of control
dose: 6.25 mg/kg/injection, schedule: Q01DX009 (ip), vehicle: saline
  T/C: 108 % of control
dose: 12.0 mg/kg/injection, schedule: Q01DX009 (ip), vehicle: saline
  T/C: 116 % of control
dose: 12.5 mg/kg/injection, schedule: Q01DX009 (ip), vehicle: saline
  T/C: 123 % of control
dose: 25.0 mg/kg/injection, schedule: Q01DX001 (ip), vehicle: saline
  T/C: 110 % of control
[1]
  T/C: 191 % of control
dose: 37.0 mg/kg/injection, schedule: Q01DX001 (ip), vehicle: saline
  T/C: 120 % of control
dose: 48.4 mg/kg/injection, schedule: Q01DX001 (ip), vehicle: saline
  T/C: 103 % of control
dose: 50.0 mg/kg/injection, schedule: Q01DX001 (ip), vehicle: saline
  T/C: 116 % of control and 122 % of control
[2]
  T/C: 337 % of control
dose: 64.4 mg/kg/injection, schedule: Q01DX001 (ip), vehicle: saline
  T/C: 115 % of control
dose: 75.0 mg/kg/injection, schedule: Q01DX001 (ip), vehicle: saline
  T/C: 171 % of control
dose: 100.0 mg/kg/injection, schedule: Q01DX001 (ip), vehicle: saline
  T/C: 151 % of control and 152 % of control and 188 % of control
dose: 150.0 mg/kg/injection, schedule: Q01DX001 (ip), vehicle: saline
  T/C: 349 % of control
dose: 300.0 mg/kg/injection, schedule: Q01DX001 (ip), vehicle: saline
  T/C: 230 % of control
dose: 400.0 mg/kg/injection, schedule: Q01DX001 (ip), vehicle: saline
  T/C: 312 % of control

## NC(CNC(=O)CBr)C(=O)O (stereo not given)
[3]
  T/C: 102 % of control
dose: 12.5 mg/kg/injection, schedule: Q01DX009 (ip), vehicle: water
  T/C: 95 % of control
dose: 25.0 mg/kg/injection, schedule: Q01DX009 (ip), vehicle: water
  T/C: 109 % of control
dose: 50.0 mg/kg/injection, schedule: Q01DX009 (ip), vehicle: water
  T/C: 109 % of control

## O=NN(CCCl)C(=O)NC1[C@H](O)CCC[C@@H]1O (stereo not given in full)
dose: 0.32 mg/kg/injection, schedule: Q01DX009 (ip), vehicle: saline
  T/C: 96 % of control
dose: 0.63 mg/kg/injection, schedule: Q01DX009 (ip), vehicle: saline
  T/C: 111 % of control
dose: 1.25 mg/kg/injection, schedule: Q01DX009 (ip), vehicle: saline
  T/C: 103 % of control and 116 % of control
dose: 5.0 mg/kg/injection, schedule: Q01DX009 (ip), vehicle: saline
  T/C: 163 % of control and 173 % of control
dose: 10.0 mg/kg/injection, schedule: Q01DX009 (ip), vehicle: saline
  T/C: 98 % of control and 118 % of control

## NC1(C(=O)O)CCCC1
[1]
  T/C: 102 % of control
[2]
  T/C: 109 % of control and 111 % of control and 120 % of control
dose: 100.0 mg/kg/injection, schedule: Q01DX009 (ip), vehicle: saline
  T/C: 121 % of control

## COc1ccc2c(ccc3oc([N+](=O)[O-])cc32)c1
[4]
  T/C: 98 % of control
[5]
  T/C: 110 % of control
[6]
  T/C: 104 % of control
[7]
  T/C: 100 % of control

## CN(CCN(C)C(=O)CCOS(C)(=O)=O)C(=O)CCOS(C)(=O)=O
dose: 12.5 mg/kg/injection, schedule: Q01DX009 (ip), vehicle: suspension in saline
  T/C: 101 % of control
dose: 25.0 mg/kg/injection, schedule: Q01DX009 (ip), vehicle: suspension in saline
  T/C: 97 % of control
dose: 50.0 mg/kg/injection, schedule: Q01DX009 (ip), vehicle: suspension in saline
  T/C: 102 % of control
dose: 100.0 mg/kg/injection, schedule: Q01DX009 (ip), vehicle: suspension in saline
  T/C: 107 % of control

## CCCCCNc1ncnc2c(C)[nH]nc12
[8]
  T/C: 103 % of control
[9]
  T/C: 94 % of control
[10]
  T/C: 108 % of control

## CC1(C)CC(=O)C(CSC(=O)c2ccccc2)C(=O)C1
dose: 3.13 mg/kg/injection, schedule: Q01DX009 (ip), vehicle: Klucel (hydroxypropylcellulose) (HPC)
  T/C: 101 % of control
[11]
  T/C: 95 % of control
[12]
  T/C: 95 % of control
[8]
  T/C: 103 % of control
[9]
  T/C: 103 % of control

## CNc1cccnc1/C=N/NC(N)=S
[4]
  T/C: 104 % of control
[5]
  T/C: 122 % of control
[6]
  T/C: 90 % of control

## O=[n+]1c2ccccc2n([O-])c2ccccc21.[Cl][Ni][Cl]
dose: 1.56 mg/kg/injection, schedule: Q01DX009 (ip), vehicle: saline with Tween-80
  T/C: 93 % of control
dose: 3.12 mg/kg/injection, schedule: Q01DX009 (ip), vehicle: saline with Tween-80
  T/C: 93 % of control
dose: 6.25 mg/kg/injection, schedule: Q01DX009 (ip), vehicle: saline with Tween-80
  T/C: 90 % of control
[4]
  T/C: 97 % of control
[5]
  T/C: 97 % of control

## COc1c(C)c2c(c(O)c1C/C=C(\C)CCC(=O)O)C(=O)OC2
[6]
  T/C: 91 % of control
[7]
  T/C: 91 % of control
[13]
  T/C: 98 % of control

## CCC(=O)Sc1ccccc1C(=O)Nc1ccc(Cl)cc1
[5]
  T/C: 94 % of control
[6]
  T/C: 100 % of control
[7]
  T/C: 107 % of control
[13]
  T/C: 89 % of control
[14]
  T/C: 105 % of control

## COc1cccc2c1C(=O)c1c(O)c3c(c(O)c1C2=O)CC(O)(/C(C)=N/NC(=O)CCCCC(=O)N/N=C(\C)C1(O)Cc2c(O)c4c(c(O)c2C(OC2CC(N)C(O)C(C)O2)C1)C(=O)c1c(OC)cccc1C4=O)CC3OC1CC(N)C(O)C(C)O1 (stereo not given)
dose: 1.5 mg/kg/injection, schedule: Q01DX009 (ip), vehicle: water
  T/C: 120 % of control
dose: 3.0 mg/kg/injection, schedule: Q01DX009 (ip), vehicle: water
  T/C: 109 % of control
[3]
  T/C: 117 % of control

## CC(C)CC(=O)NC(C(=O)NC(C(=O)NC(CC(C)C)C(O)CC(=O)NC(C)C(=O)NC(CC(C)C)C(O)CC(=O)O)C(C)C)C(C)C (stereo not given)
dose: 3.12 mg/kg/injection, schedule: Q01DX009 (ip), vehicle: Klucel (hydroxypropylcellulose) (HPC)
  T/C: 95 % of control
[11]
  T/C: 99 % of control
[12]
  T/C: 95 % of control
[8]
  T/C: 97 % of control
[9]
  T/C: 97 % of control
[10]
  T/C: 95 % of control

## NC(=O)CC(N)C(=O)O (stereo not given)
dose: 50.0 mg/kg/injection, schedule: Q01DX009 (ip), vehicle: other
  T/C: 95 % of control
[6]
  T/C: 102 % of control
dose: 100.0 mg/kg/injection, schedule: Q01DX009 (ip), vehicle: other
  T/C: 110 % of control
[7]
  T/C: 96 % of control
dose: 200.0 mg/kg/injection, schedule: Q01DX009 (ip), vehicle: other
  T/C: 97 % of control
[13]
  T/C: 96 % of control
dose: 400.0 mg/kg/injection, schedule: Q01DX009 (ip), vehicle: other
  T/C: 92 % of control
[14]
  T/C: 97 % of control
dose: 800.0 mg/kg/injection, schedule: Q01DX009 (ip), vehicle: other
  T/C: 104 % of control
dose: 800.0 mg/kg/injection, schedule: Q01DX009 (ip), vehicle: saline with Tween-80
  T/C: 100 % of control
dose: 1600.0 mg/kg/injection, schedule: Q01DX009 (ip), vehicle: other
  T/C: 99 % of control
dose: 1600.0 mg/kg/injection, schedule: Q01DX009 (ip), vehicle: saline with Tween-80
  T/C: 96 % of control

## CCCCNC(C)[C@]1(O)Cc2c(O)c3c(c(O)c2[C@@H](OC2CC(N)C(O)C(C)O2)C1)C(=O)c1c(OC)cccc1C3=O (stereo not given in full)
dose: 0.62 mg/kg/injection, schedule: Q01DX009 (ip), vehicle: water
  T/C: 107 % of control
dose: 1.25 mg/kg/injection, schedule: Q01DX009 (ip), vehicle: water
  T/C: 114 % of control
dose: 2.5 mg/kg/injection, schedule: Q01DX009 (ip), vehicle: water
  T/C: 103 % of control
dose: 5.0 mg/kg/injection, schedule: Q01DX009 (ip), vehicle: water
  T/C: 115 % of control

## CCN(CC)c1ccc2[nH]c3c(C(N)=O)cc(=O)c(=O)c=3oc2c1
[4]
  T/C: 90 % of control
[5]
  T/C: 107 % of control
[6]
  T/C: 98 % of control
[7]
  T/C: 93 % of control

## CN=C(NC#N)NCCSCc1nc[nH]c1C
dose: 12.0 mg/kg/injection, schedule: Q01DX009 (ip), vehicle: Klucel (hydroxypropylcellulose) (HPC)
  T/C: 104 % of control
[8]
  T/C: 100 % of control
[9]
  T/C: 103 % of control
[10]
  T/C: 99 % of control
dose: 200.0 mg/kg/injection, schedule: Q01DX009 (ip), vehicle: Klucel (hydroxypropylcellulose) (HPC)
  T/C: 105 % of control
dose: 400.0 mg/kg/injection, schedule: Q01DX009 (ip), vehicle: Klucel (hydroxypropylcellulose) (HPC)
  T/C: 95 % of control
